One block for each compound: values may come before it.
Legend:
Type in all cases: physicochemical
[1] = ESR line widths of nitroxides in degassed benzene
Excerpt: The ESR-spectral properties of a series of partially and fully deuterated nitroxides (compounds 3b-d) also useful in the method of the invention have been investigated. These radicals are derived from 2,5-di-t-butyl-3,4-dimethoxycarbonyl-pyrryloxyl (Compound 3a) and were investigated alongside Tempone (4-oxo-2,2,6,6-tetramethyl-piperidine-1-oxyl, 1) and CTPO (3-carbamoyl-2,2,5,5-tetramethyl-pyrroline-1-yloxyl, 2a) which are typical examples of nitroxides frequently used for imaging purposes.
Instrumentation. The ESR-spectra were recorded by the Upgrade Version ESP 3220-200SH of a Bruker ER-200D SRC instrument at 22°. The radical concentration was in the range 0.1-0.2 mM and the modulation amplitude was 10 mG. The microwave power was well below saturation. NMR-spectra were recorded on a Varian XL-300 spectrometer. Mass spectra were recorded on a VG Quattor II instrument equipped with ESPC electrospray. GLC analyses were performed on a HP 5830 ser II instrument, equipped with a fused-silica column (30 m, 0.25 μm, HP-1701). TLC analyses and column chromotographic separations were performed on Silica Gel 60, using heptane/ether as the eluent.
Preparation of pyrryloxyl radicals. To a degassed solution of 2 mg of the hydroxylamine 7a-7d in 2 ml of benzene was added ca. 10 mg NiOOH. After 5 min the suspension was filtered and the pale green blue solution was diluted with degassed benzene in order to obtain a solution suitable for ESR.
ESR-measurements. Summarised in Table 5 are the ESR line widths for the nitroxides discussed above. […] Perdeuteration results in a reduction of the line width by a factor of 2.2 for 1 and of 2.5 for 2b. […] The spin density distributions, nitrogen coupling constants and intrinsic line widths for 3d are compared in Table 6 to other nitroxides.

[2] = Stability measurements: half life without exclusion of air
[3] = ESR linewidth of trityl radicals (synthesis examples); conditions: singlet
[4] = Overhauser enhancement of trityl radicals (synthesis examples)
[5] = DNP (Overhauser) enhancement and DNP-curve relaxivity at infinite concentration and power; conditions: for A. (enhancement at infinite concentration and power): water
Excerpt: The calibration data are generated by determining Overhauser enhancement values for the radical in the selected body fluid, at the selected temperature and at a range of oxygen (and preferably also radical) concentrations. The intrinsic esr relaxation times for the radical can be determined, under the same conditions, using a conventional esr spectrometer equipped with a temperature controller, with oxygen concentration being determined using the method of Ravin et al J. Appl. Physiol. 18:784-790(1964), a method known to produce accurate and reproducible results.
(§1) The following four water soluble, single ESR line trityls were investigated by NMRD, Dynamic Nuclear Polarisation (DNP) and ESR (Examples 1-4).
(§2) The relaxivity and DNP enhancement data were measured in water, plasma and blood at 23° C. and 37° C. The results are set out in Tables 1 and 2.

[6] = Oxygen sensitivity at 260 MHz by ESR and DNP in water and blood; conditions: for Lorentzian line broadening by oxygen: 260 MHz
Description: The oxygen sensitivity of the deuterated hydroxy trityl was examined at 260 MHz in water and blood at 23° C. and 37° C. by ESR and DNP. The desired oxygen partial pressures were obtained in a simple shaking tonometer. The sample of 1-2 ml volume was shaken with a water saturated gas mixture flowing slowly above the sample for 5 min. The sample and gas was in a water bath maintaining the temperature. The gas mixtures were of high purity, chemically analysed. The Lorentzian line broadenings are 511 and 369 mG/mMo2 in water at 37° C. and 23° C. respectively and 329 mG/mMo2 in blood at 23° C.

[7] = Electron spin relaxation rates (radical concentration dependent) from CW ESR spectra and DNP data
Description: as §1
Electron spin relaxation rates were measured by analysis of CW ESR spectra and DNP data at 23° C. and 37° C. in water, isotonic saline, plasma and blood for the deuterated hydroxy trityl and in water and isotonic saline for the perdeuterated and symmetric trityl.

[8] = Relaxivity from NMRD profiles in water, plasma and blood; conditions: for Relaxivity: water
Description: as §1, §2

[9] = water (isotonic saline), 23° C.
[10] = water (isotonic saline), 37° C.

Compound: CC1(C)CC(=O)CC(C)(C)N1[O] [Compound 1, 4-oxo-2,2,6,6-tetramethyl-piperidine-1-oxyl, reference compound]
ESR Line width ([1]; benzene, 23° C.): 602 mg
reduction of the line width by perdeuteration (factor) ([1]; degassed benzene, 22° C.): 2.2

Compound: [2H]C([2H])([2H])C1(C([2H])([2H])[2H])N([O])C(C([2H])([2H])[2H])(C([2H])([2H])[2H])C([2H])([2H])C(=O)C1([2H])[2H] [Compound 1-d16, 4-oxo-2,2,6,6-tetramethyl-piperidine-d16-1-oxyl, reference compound]
ESR Line width ([1]; benzene, 23° C.): 266 mg

Compound: CC1(C)C=C(C(=O)O)C(C)(C)N1[O] [Compound 2b, 2,2,5,5-tetramethyl-3-pyrrolin-1-oxyl-3-carboxylic acid, reference compound]
ESR Line width ([1]; benzene, 23° C.): 1032 mg
reduction of the line width by perdeuteration (factor) ([1]; degassed benzene, 22° C.): 2.5

Compound: [2H]C1=C(C(=O)O)C(C([2H])([2H])[2H])(C([2H])([2H])[2H])N([O])C1(C([2H])([2H])[2H])C([2H])([2H])[2H] [Compound 2b-d13, 2,2,5,5-tetramethyl-3-pyrrolin-d13-oxyl-3-carboxylic acid, reference compound]
ESR Line width ([1]; benzene, 23° C.): 407 mg

Compound: COC(=O)c1c(C(=O)OC)c(C(C)(C)C)n([O])c1C(C)(C)C [Compound 3a, 2,5-di-t-butyl-3,4-dimethoxycarbonyl-pyrryloxyl]
ESR Line width ([1]; benzene, 23° C.): 228 mg

Compound: [2H]C([2H])([2H])OC(=O)c1c(C(=O)OC([2H])([2H])[2H])c(C(C)(C)C)n([O])c1C(C)(C)C [Compound 3b]
ESR Line width ([1]; benzene, 23° C.): 172 mg

Compound: [2H]C([2H])([2H])C(c1c(C(=O)OC)c(C(=O)OC)c(C(C([2H])([2H])[2H])(C([2H])([2H])[2H])C([2H])([2H])[2H])n1[O])(C([2H])([2H])[2H])C([2H])([2H])[2H] [Compound 3c]
ESR Line width ([1]; benzene, 23° C.): 219 mg
influence of deuteration of the t-butyl groups alone on line width, 3a:3c ([1]; degassed benzene, 22° C.): almost no influence

Compound: [2H]C([2H])([2H])OC(=O)c1c(C(=O)OC([2H])([2H])[2H])c(C(C([2H])([2H])[2H])(C([2H])([2H])[2H])C([2H])([2H])[2H])n([O])c1C(C([2H])([2H])[2H])(C([2H])([2H])[2H])C([2H])([2H])[2H] [Compound 3d]
ESR Line width ([1]; benzene, 23° C.): 113 mg
decrease of line width by deuteration of the alkyl groups of the ester moiety, 3c:3d (factor) ([1]; degassed benzene, 22° C.): 1.9
ESR Line width ([1]; degassed benzene, 22° C., high dilution): 113 mg
nitrogen coupling constant ([1]; in benzene): 4.4 G

ESR line width compared with 3b ([1]; upon treatment with NiOOH): almost identical to that of 3b
Compound: CC(C)(C)c1c(C(=O)O)c(C(=O)O)c(C(C)(C)C)n1O [Compound 4, 2.5-di-t-butyl-N-hydroxy-pyrrol-3,4-dicarboxylic acid]

Half life ([2]; in water without exclusion of air): 5 days
ESR Line width ([3]; 3.4 mM in H2 O, 200 G): 120 mg
Overhauser enhancement ([4]; 3.4 mM in H2 O, 5 W microwave power): 164
Compound: Bis(8-carboxy-2,2,6,6-tetra(hydroxymethyl)benzo[2-d: 4,5-d']bis(1,3)dithiol-4-yl)-mono(8-carboxy-2,2,6,6-tetramethylbenzo[2-d: 4,5-d']-bis(1,3)dioxol-4-yl)) methyl sodium salt [Example 27]

ESR Line width ([3]; H2 O, 200 G): 433 mg
Compound: Bis(8-ethoxycarbonyl-2,2,6,6-tetra(hydroxymethyl)benzo[1,2-d: 4,5-d']bis(1,3)dithiol-4-yl)-mono(8-ethoxycarbonyl-2,2,6,6-tetramethylbenzo[1,2-d:4,5-d']-bis(1,3)dioxol-4-yl))methyl [Example 26]

Half life ([2]; in acetonitrile without exclusion of air): 83.33 days
ESR Line width ([3]; THF, 200 G): 325 mg
Overhauser enhancement ([4]; THF, 2.1 mM, 4 W microwave power): 156
Compound: Bis-(8-ethoxycarbonyl-2,2,6,6-tetramethylbenzo[1,2-d: 4,5-d']-bis(1,3)dithiole-4-yl)-mono-(8-ethoxycarbonyl-2,2,6,6-tetramethylbenzo[1,2-d:4,5-d']-bis(1,3)dioxol-4-yl)methyl [Example 19]

ESR Line width ([3]; H2 O, 200 G): 105 mg
Overhauser enhancement ([4]; H2 O, 6.9 mM, 0.012 W microwave power): 219
Compound: Bis-(8-potassium carboxylate-2,2,6,6-tetramethylbenzo [1,2-d:4 5-d']-bis(1,3)dithiol-4-yl)-mono-(8-potassium carboxylate-2,2,6,6-tetramethylbenzo[1,2-d:4,5-d']-bis (1,3)dioxol-4-yl)methyl [Example 20]

T1 i.e. proton relaxivity ([5]; blood sample, 37° C.): 0.44 mM⁻¹ s⁻¹
maximum Overhauser enhancement (i.e. at infinite VHF power and infinite radical concentration) ([5]; blood sample, 37° C.): 192
A. (infinite concentration and power), DNP enhancement ([5]; blood, 37° C.): 192
Relaxivity at infinite concentration and power ([5]; blood, 37° C.): 0.44 mM⁻¹ s⁻¹
A. (infinite concentration and power), DNP enhancement ([5]; plasma, 37° C.): 231
Relaxivity at infinite concentration and power ([5]; plasma, 37° C.): 0.32 mM⁻¹ s⁻¹
A. (enhancement at infinite concentration and power) [5]: 278
2(3γe T1e)^-1, relaxation rate as a function of oxygen concentration (peak-to-peak) ([6]; blood, 23° C.): 250 mg/mM
2(3γe T2e)^-1, relaxation rate as a function of oxygen concentration (peak-to-peak) ([6]; blood, 23° C.): 329 mg/mM
(γe T1e +L T2e)^-1, square root of slope of the inverse DNP curve: constant term ([6]; blood, 23° C.): 12.9 mg/mM
Lorentzian line broadening by oxygen ([6]; blood, 23° C.): 329 mG/mMo2
2(3γe T1e)^-1, relaxation rate as a function of oxygen concentration (peak-to-peak) ([6]; blood, 37° C.): 330 mg/mM
2(3γe T2e)^-1, relaxation rate as a function of oxygen concentration (peak-to-peak) ([6]; blood, 37° C.): 428 mg/mM
(γe T1e +L T2e)^-1, square root of slope of the inverse DNP curve: constant term ([6]; blood, 37° C.): 15.0 mg/mM
2(3γe T1e)^-1, relaxation rate as a function of oxygen concentration (peak-to-peak) ([6]; water, 23° C.): 301 mg/mM
2(3γe T2e)^-1, relaxation rate as a function of oxygen concentration (peak-to-peak) ([6]; water, 23° C.): 369 mg/mM
(γe T1e +L T2e)^-1, square root of slope of the inverse DNP curve: constant term ([6]; water, 23° C.): 13.4 mg/mM
Lorentzian line broadening by oxygen ([6]; water, 23° C.): 369 mG/mMo2
2(3γe T1e)^-1, relaxation rate as a function of oxygen concentration (peak-to-peak) ([6]; water, 37° C.): 398 mg/mM
2(3γe T2e)^-1, relaxation rate as a function of oxygen concentration (peak-to-peak) ([6]; water, 37° C.): 511 mg/mM
(γe T1e +L T2e)^-1, square root of slope of the inverse DNP curve: constant term ([6]; water, 37° C.): 14.2 mg/mM
Lorentzian line broadening by oxygen ([6]; water, 37° C.): 511 mG/mMo2
2(3γe T1e)^-1, concentration dependent relaxation rate (peak-to-peak) ([7]; blood, 37° C.): 3.6 ± 0.5 mg/mM
2(3γe T2e)^-1, concentration dependent relaxation rate (peak-to-peak) ([7]; blood, 37° C.): 21.5 ± 0.5 mg/mM
2(3γe T1e)^-1, concentration dependent relaxation rate (peak-to-peak) ([7]; plasma, 37° C.): 2.7 ± 0.5 mg/mM
2(3γe T2e)^-1, concentration dependent relaxation rate (peak-to-peak) ([7]; plasma, 37° C.): 9.8 ± 0.5 mg/mM
2(3γe T1e)^-1, concentration dependent relaxation rate (peak-to-peak) [7, 9]: 2.6 ± 0.1 mg/mM
2(3γe T2e)^-1, concentration dependent relaxation rate (peak-to-peak) [7, 9]: 11.1 ± 0.5 mg/mM
2(3γe T1e)^-1, concentration dependent relaxation rate (peak-to-peak) [7, 10]: 2.8 ± 0.2 mg/mM
2(3γe T2e)^-1, concentration dependent relaxation rate (peak-to-peak) [7, 10]: 8.0 ± 0.2 mg/mM
Relaxivity at 400kHz ([8]; blood, 23° C.): 0.53 mM⁻¹ s⁻¹
Relaxivity at 400kHz ([8]; blood, 37° C.): 0.44 mM⁻¹ s⁻¹
Relaxivity at 400kHz ([8]; plasma, 23° C.): 0.48 mM⁻¹ s⁻¹
Relaxivity at 400kHz ([8]; plasma, 37° C.): 0.45 mM⁻¹ s⁻¹
Relaxivity ([8]; 23° C.): 0.26 mM⁻¹ s⁻¹
Relaxivity ([8]; 37° C.): 0.20 mM⁻¹ s⁻¹
Compound: Bis-(8-sodium carboxylate-2,2,6,6-tetrakis-(hydroxy-^2 H2 -methyl)-benzo[1,2-d:4,5-d']-bis(1,3) dithiole-4-yl)-mono-(8-sodium carboxylate-2,2,6,6-tetramethylbenzo [1,2-d:4,5-d']-bis(1,3) dioxole-4-yl)methyl [deuterated hydroxy trityl]

ESR Line width ([3]; 1.5 mM in H2 O, 100 G): 100 mg
Compound: Tris(8-carboxy-2,2,6,6-tetrahydroxymethylbenzo[1,2-d: 4,5-d']bis(1,3)dithiole-4-yl)methyl sodium salt [Example 14]

A. (enhancement at infinite concentration and power) [5]: 266
2(3γe T1e)^-1, concentration dependent relaxation rate (peak-to-peak) [7, 9]: 13.2 ± 0.5 mg/mM
2(3γe T2e)^-1, concentration dependent relaxation rate (peak-to-peak) [7, 9]: 35.4 ± 0.6 mg/mM
2(3γe T1e)^-1, concentration dependent relaxation rate (peak-to-peak) [7, 10]: 17.7 ± 0.8 mg/mM
2(3γe T2e)^-1, concentration dependent relaxation rate (peak-to-peak) [7, 10]: 33.1 ± 0.3 mg/mM
Relaxivity ([8]; 23° C.): 0.21 mM⁻¹ s⁻¹
Relaxivity ([8]; 37° C.): 0.15 mM⁻¹ s⁻¹
Compound: Tris-(8-sodium carboxylate-2,2,6,6-tetrakis-(^2 H3 -methyl)-benzo[1,2-d:4,5-d']-bis(1,3) dithiole)methyl [symmetric trityl]

From patent US6256527A, “Method for determining oxygen concentration” (Nycomed Imaging AS, priority 1995, dated 2001)
